In patent US9868737B2, “Pyridino[1,2-A]pyrimidone analogue used as MTOR/P13K inhibitor” (CISEN PHARMACEUTICAL CO., LTD., priority 2014, dated 2018) one finds inhibition and IC50 data, which are given here for 19 compounds.

Read-outs that look alike come from different tables or passages of the source. A value given as a limit tells only on which side of the number the result lay.

In the experiment the test system is MCF-7 cells. Briefly: In vitro test of cell activity (MCF-7 cells, insulin stimulation, ELISA-One fluorescence). Format: cell-based. Particulars: Homo sapiens, MCF7, MCF-7 cells; for inhibition at 0.5 µM: conc. 0.5 μM; for inhibition at 0.25 µM: conc. 0.25 μM; for inhibition at 1 µM: conc. 1 μM. As for the experimental part: Example In Vitro Tests of Cell Activities Experimental Steps and Methods:
1) MCF-7 cells were inoculated at the density of 2.5×10^4 cells/well into 96-well plates (the culture medium used should be a complete culture medium containing 10% FBS).
2) On the next day, the medium in each well was drawn out. A certain concentration (preliminary screening) or a series of concentration (IC50 test) of compounds were dissolved in a culture medium without serum and added to the 96-well plates to culture cells for 2 hours.
3) Insulin was dissolved in a culture medium without serum, added to the cultured cells and incubated for 30 minutes, wherein the final concentration of insulin was […].
4) A lysis solution was prepared according to the following method during the waiting period for the reaction:
a) Enhancer solution was removed from the refrigerator to melt in advance.
b) Enhancer solution was diluted 10 times with the 5× Lysis Buffer to give a concentrated lysis solution.
c) The concentrated lysis solution was diluted 5 times with double distilled water to give the lysis solution.
5) The medium in each well was completely removed and each well was quickly rinsed with PBS once.
6) 150 μl of the freshly prepared lysis solution was added to each well and shaked at room temperature for 10 minutes.
7) After confirming that all cells were detached, the lysis solution together with the cell fragments was transferred into a 1.5 ml tube.
8) The tube was shaked on vortes mixer to make the lysis solution and cells mix completely and then the mixture was centrifugated at 4° C. under 12000 g for 10 minutes.
9) The number of strips of ELISA-one micro-well plate that is required was calculated. The needless strips were removed from the frame, put back into the storage bag and sealed. Before the strips of micro-well plate were used, 200 μl of double distilled water was used to rinse each well to remove preservative.
10) 50 μl of antibody mixture was added to each well. (The antibody mixture solution was prepared by mixing the medium antibody reagent and the enzyme labeled antibody reagent with an equal proportion. The preparation of antibody mixture didn't need vortex.)
11) 25 μl of cell lysates was added to each well of ELISA-One micro-well plate. The micro-well plate was covered with adhesive sealing film and incubated on a micro-well plate oscillation instrument at room temperature for 1 hour.
12) Each well was rinsed with 150 μl of 1× rinsing buffer 3 times. After the last rinsing, the rinsing buffer in the well was completely removed. If necessary, the 1× rinsing buffer could be allowed to stay in the micro-well plate for up to 30 minutes so that the substrate mixed solution could be prepared during such time period.
13) The substrate mixed solution should be prepared just before each use, 10 μl of the substrate mixed solution was added to each well and the micro-well plate was sealed with tin-foil and incubated on the micro-well plate oscillation instrument at room temperature for 10 minutes.
14) 10 μl of stop solution was added to each well and mixed slightly (5-10 seconds) on the micro-well plate oscillation instrument.
15) The corresponding ELISA-One filter group was assembled and used to read the fluorescence signal intensity.
(In general: An ELISA detects its analyte on a solid surface through an enzyme-linked reagent.)

Take `COc1ncc(-c2ccc3ncc(F)c(=O)n3c2)cc1NS(=O)(=O)c1cc(F)ccc1F` [compound 65]: the inhibition at 0.5 µM was 84.8% (read-out: % inhibition AKT) and 89.7% (read-out: % inhibition p70s6k). The IC50 is not above 50 nM (read-out: IC50 p-AKT) and 50 to 100 nM (read-out: IC50 p-p70S6K).

On to `COc1ncc(-c2ccc3ncc(Cl)c(=O)n3c2)cc1NS(=O)(=O)c1cc(F)cc(F)c1` [compound 147], for which the inhibition at 0.25 µM is 80.3% (read-out: % inhibition AKT) and 81.3% (read-out: % inhibition p70s6k). Further, the IC50 (read-out: IC50 p-AKT) was in the range of 50 to 100 nM and the IC50 (read-out: IC50 p-p70S6K) was 50 to 100 nM.

As to `COc1ncc(-c2ccc3nccc(=O)n3c2)nc1NS(=O)(=O)c1ccc(F)cc1F` [compound 33], the inhibition at 0.5 µM is, setting by setting: (read-out: % inhibition AKT) -40.9%; (read-out: % inhibition p70s6k) 0.8%.

On to `COc1ncc(-c2ccc3ncc(F)c(=O)n3c2)cc1NS(=O)(=O)c1ccccc1Cl` [compound 63], for which the inhibition at 0.5 µM reads like this: (read-out: % inhibition AKT) 89.5%; (read-out: % inhibition p70s6k) 92.9%. In addition, the IC50 runs as follows: (read-out: IC50 p-AKT) not above 50 nM; (read-out: IC50 p-p70S6K) not above 50 nM.

Regarding `COc1ncc(-c2ccc3nccc(=O)n3c2C)cc1NS(=O)(=O)c1ccc(F)cc1C` [compound 57], the inhibition at 0.5 µM was 58.6% (read-out: % inhibition AKT) and 47.2% (read-out: % inhibition p70s6k).

With `COc1ncc(-c2ccc3ncc(OCCOCC(F)(F)F)c(=O)n3c2)cc1NS(=O)(=O)c1sc(C)nc1C` [compound 202], the IC50 (read-out: IC50 p-AKT) was not above 50 nM.

With `CCOc1cnc2ccc(-c3cnc(OC)c(NS(=O)(=O)c4ccccc4Cl)c3)cn2c1=O` [compound 173], the inhibition at 0.25 µM came out at 88.9% (read-out: % inhibition AKT) and 82.6% (read-out: % inhibition p70s6k).

Take `Cc1ncc(-c2ccc3nccc(=O)n3c2)cc1NS(=O)(=O)c1ccc(F)cc1` [compound 8]: the inhibition at 1 µM is, setting by setting: (read-out: % inhibition AKT) 84.6%; (read-out: % inhibition p70s6k) 60.5%.

For `COc1ncc(-c2cn3c(=O)ccnc3cn2)cc1NS(=O)(=O)c1ccc(F)cc1F` [compound 39, 2,4-difluoro-N-(2-methoxy-5-(4-oxo-4H-pyrazino[1,2-a]pyrimidin-7-yl)pyridin-3-yl)benzsulfamide], the inhibition at 0.5 µM (read-out: % inhibition AKT) is -28.6% and the inhibition at 0.5 µM (read-out: % inhibition p70s6k) turned out to be 7.1%.

On to `COc1ncc(-c2ccc3nccc(=O)n3c2)cc1NS(=O)(=O)c1sccc1Cl` [compound 34], for which the inhibition at 0.5 µM runs as follows: (read-out: % inhibition AKT) 97%; (read-out: % inhibition p70s6k) 95.6%. In addition, the IC50 was not above 50 nM (read-out: IC50 p-AKT) and 50 to 100 nM (read-out: IC50 p-p70S6K).

With `COc1ncc(-c2ccc3ncc(OCC(=O)O)c(=O)n3c2)cc1NS(=O)(=O)c1ccc(F)cc1F` [compound 177], the IC50 (read-out: IC50 p-AKT) was more than 250 nM.

As to `COc1ncc(-c2ccc3ncc(C)c(=O)n3c2)cc1NS(=O)(=O)c1ccccc1F` [compound 84], the inhibition at 0.5 µM (read-out: % inhibition AKT) is 93.8% and the inhibition at 0.5 µM (read-out: % inhibition p70s6k) came out at 88.7%. Also, the IC50 runs as follows: (read-out: IC50 p-AKT) not above 50 nM; (read-out: IC50 p-p70S6K) 50 to 100 nM.

On to `COc1ncc(-c2cn3c(=O)ccnc3cc2F)cc1NS(=O)(=O)c1c(F)cccc1F` [compound 114], for which the inhibition at 0.5 µM is 53% (read-out: % inhibition AKT) and -1.2% (read-out: % inhibition p70s6k).

Turning to `COCCOc1cnc2ccc(-c3cnc(OC)c(NS(=O)(=O)c4cc(Cl)ccc4F)c3)cn2c1=O` [compound 272], the IC50 (read-out: IC50 p-AKT) is not above 50 nM.

For `O=c1ccnc2ccc(-c3cnc(Cl)c(NS(=O)(=O)c4ccccc4F)c3)cn12` [compound 19], the inhibition at 1 µM runs as follows: (read-out: % inhibition AKT) 91.2%; (read-out: % inhibition p70s6k) 74.1%. Moreover, the half-inhibitory concentration (IC50) by setting is: (read-out: IC50 p-AKT) not above 50 nM; (read-out: IC50 p-p70S6K) more than 250 nM.

Regarding `COc1ncc(-c2ccc3ncc(Cl)c(=O)n3c2)cc1NS(=O)(=O)c1sc(Cl)nc1C` [compound 168], the IC50 (read-out: IC50 p-AKT) is not above 50 nM.

For `COc1ncc(-c2cn3c(=O)ccnc3cn2)cc1NS(=O)(=O)c1cc(F)cc(F)c1` [compound 40], the inhibition at 0.5 µM is, setting by setting: (read-out: % inhibition AKT) 18.1%; (read-out: % inhibition p70s6k) 13.7%.

For `COc1ncc(-c2ccc3ncc(OCC4COC4)c(=O)n3c2)cc1NS(=O)(=O)c1ccc(F)cc1Cl` [compound 214], the half-maximal inhibitory concentration (IC50) (read-out: IC50 p-AKT) was not above 50 nM.

On to `CCOc1ncc(-c2ccc3nccc(=O)n3c2)cc1NS(=O)(=O)c1ccc(F)cc1F` [compound 15], for which the inhibition at 1 µM was 93.3% (read-out: % inhibition AKT) and 91.7% (read-out: % inhibition p70s6k).

What is called inhibition is the drop in the measured response relative to a control, in per cent. For orientation: IC50 means the concentration needed to halve the response being measured.
